Experimental data as given in patent US11344546B2, “Benzamide compounds” (Recurium IP Holdings, LLC, priority 2018, dated 2022).

Assays:
[1] = system: NCI-H1963 cells; test: NCI-H1963 cell proliferation assay (CellTiter-Glo); format: cell-based; settings: Homo sapiens, 72 h compound treatment, read-out: H1963 (nM) CTG IC50
Description: (§1) Cell proliferation was measured using the CellTiter-Glo@ Luminescent Cell Viability Assay. The assay involved the addition of a single reagent (CellTiter-Glo® Reagent) directly to cells cultured in serum-supplemented medium. RS4;11 (ATC, CRL-1873) cells were cultured according to ATCC recommendations and were seeded at 50,000 cells per well. NCI-H1963 cells (ATCC CRL-5982) were cultured according to ATCC recommendations and seeded at 12,000 cells per well.
(§2) Each compound evaluated was prepared as a DMSO stock solution (10 mM). Compounds were tested in duplicate on each plate, with a 10-point serial dilution curve (1:3 dilution). Compound treatment (1.0 μL) was added from the compound dilution plate to the cell plate. The highest compound concentration was 10 μM (final), with a 0.1% final DMSO concentration. Plates were then incubated at 37° C., 5% CO2. After 48 h of compound treatment for RS4;11 or 72 h for NCI-H1963, cell plates were equilibrated at rt for approximately 30 mins. An equi-volume amount of CellTiter-Glo@ Reagent (40 μL) was added to each well. Plates were mixed for 2 mins on an orbital shaker to induce cell lysis and then incubated at RT for 10 mins to stabilize the luminescent signal. Luminescence was recorded using a Envision plate reader according to CellTiter-Glo protocol. IC50 of each compound was calculated using GraphPad Prism by nonlinear regression analysis.

[2] = system: RS4;11 cells; test: RS4;11 cell proliferation assay (CellTiter-Glo); format: cell-based; settings: Homo sapiens, 48 h compound treatment, read-out: RS4;11 (nM) CTG IC50
Description: as §1, §2

Structure (SMILES)	IC50 [1]	IC50 [2]
CC1(C)CCC(CN2CCN(c3ccc(C(=O)NS(=O)(=O)c4ccc(NCC5CCOCC5)c([N+](=O)[O-])c4)c(Oc4cnc5[nH]ccc5c4)c3)CC2)=C(c2ccc(Cl)cc2)C1 [ABT-199, reference compound]	> 1000 nM	< 100 nM
CC1(C)CCC(c2ccc(Cl)cc2)=C(CN2CCN(c3ccc(C(=O)NS(=O)(=O)c4ccc(N[C@H](CCN5CCOCC5)CSc5ccccc5)c(S(=O)(=O)C(F)(F)F)c4)cc3)CC2)C1 [ABT-263, reference compound]	≤ 500 nM	< 100 nM
CC1(C)CCC(C23CC(Cl)(C2)C3)=C(CN2CCN(c3ccc(C(=O)NS(=O)(=O)c4ccc(N[C@H](CCN5CCOCC5)CSc5ccccc5)c(S(=O)(=O)C(F)(F)F)c4)cc3)CC2)C1 [Example 45, (R)-4-(4-((2-(3-Chlorobicyclo[1.1.1]pentan-1-yl)-5,5-dimethylcyclohex-1-en-1-yl)methyl)piperazin-1-yl)-N-((4-((4-morpholino-1-(phenylthio)butan-2-yl)amino)-3-((trifluoromethyl)sulfonyl)phenyl)sulfonyl)benzamide]		> 1000 nM
CN(CCO)CC[C@H](CSc1ccccc1)Nc1ccc(S(=O)(=O)NC(=O)c2ccc(N3CCN(CC4=C(C56CC(C(F)(F)F)(C5)C6)CC(C)(C)CC4)CC3)cc2)cc1S(=O)(=O)C(F)(F)F [Example 51, (R)-4-(4-((4,4-dimethyl-2-(3-(trifluoromethyl)bicyclo[1.1.1]pentan-1-yl)cyclohex-1-en-1-yl)methyl)piperazin-1-yl)-N-((4-((4-((2-hydroxyethyl)(methyl)amino)-1-(phenylthio)butan-2-yl)amino)-3-((trifluoromethyl)sulfonyl)phenyl)sulfonyl)benzamide]		100 to 1000 nM
CC1(C)CCC(CN2CCN(c3ccc(C(=O)NS(=O)(=O)c4ccc(N[C@H](CCN5CCOCC5)CSc5ccccc5)c(S(=O)(=O)C(F)(F)F)c4)cc3)CC2)=C(C23CC(C)(C2)C3)C1 [Example 52, (R)-4-(4-((4,4-Dimethyl-2-(3-methylbicyclo[1.1.1]pentan-1-yl)cyclohex-1-en-1-yl)methyl)piperazin-1-yl)-N-((4-((4-morpholino-1-(phenylthio)butan-2-yl)amino)-3-((trifluoromethyl)sulfonyl)phenyl)sulfonyl)benzamide]		100 to 1000 nM
CCC12CC(C3=C(CN4CCN(c5ccc(C(=O)NS(=O)(=O)c6ccc(N[C@H](CCN7CCOCC7)CSc7ccccc7)c(S(=O)(=O)C(F)(F)F)c6)cc5)CC4)CCC(C)(C)C3)(C1)C2 [Example 53, (R)-4-(4-((2-(3-Ethylbicyclo[1.1.1]pentan-1-yl)-4,4-dimethylcyclohex-1-en-1-yl)methyl)piperazin-1-yl)-N-((4-((4-morpholino-1-(phenylthio)butan-2-yl)amino)-3-((trifluoromethyl)sulfonyl)phenyl)sulfonyl)benzamide]		> 1000 nM
CC1(C)CCC(CN2CCN(c3ccc(C(=O)NS(=O)(=O)c4ccc(N[C@H](CCN5CCOCC5)CSc5ccccc5)c(S(=O)(=O)C(F)(F)F)c4)cc3)CC2)=C(C23CC(C(F)(F)F)(C2)C3)C1 [Example 54, (R)-4-(4-((4,4-dimethyl-2-(3-(trifluoromethyl)bicyclo[1.1.1]pentan-1-yl)cyclohex-1-en-1-yl)methyl)piperazin-1-yl)-N-((4-((4-morpholino-1-(phenylthio)butan-2-yl)amino)-3-((trifluoromethyl)sulfonyl)phenyl)sulfonyl)benzamide]		> 1000 nM
CC1(C)CCC(CN2CCN(c3ccc(C(=O)NS(=O)(=O)c4ccc(N[C@H](CCN5CCOCC5)CSc5ccccc5)c([N+](=O)[O-])c4)cc3)CC2)=C(C23CC(C)(C2)C3)C1 [Example 56, (R)-4-(4-((4,4-dimethyl-2-(3-methylbicyclo[1.1.1]pentan-1-yl)cyclohex-1-en-1-yl)methyl)piperazin-1-yl)-N-((4-((4-morpholino-1-(phenylthio)butan-2-yl)amino)-3-nitrophenyl)sulfonyl)benzamide]	500 to 1000 nM	> 1000 nM
CCC12CC(C3=C(CN4CCN(c5ccc(C(=O)NS(=O)(=O)c6ccc(N[C@H](CCN7CCOCC7)CSc7ccccc7)c([N+](=O)[O-])c6)cc5)CC4)CCC(C)(C)C3)(C1)C2 [Example 57, (R)-4-(4-((2-(3-ethylbicyclo[1.1.1]pentan-1-yl)-4,4-dimethylcyclohex-1-en-1-yl)methyl)piperazin-1-yl)-N-((4-((4-morpholino-1-(phenylthio)butan-2-yl)amino)-3-nitrophenyl)sulfonyl)benzamide]	> 1000 nM	> 1000 nM
CC1(C)CCC(C23CC(C(F)F)(C2)C3)=C(CN2CCN(c3ccc(C(=O)NS(=O)(=O)c4ccc(N[C@H](CCN5CCC(O)CC5)CSc5ccccc5)c(S(=O)(=O)C(F)(F)F)c4)cc3)CC2)C1 [Example 65, (R)-4-(4-((2-(3-(difluoromethyl)bicyclo[1.1.1]pentan-1-yl)-5,5-dimethylcyclohex-1-en-1-yl)methyl)piperazin-1-yl)-N-((4-((4-(4-hydroxypiperidin-1-yl)-1-(phenylthio)butan-2-yl)amino)-3-((trifluoromethyl)sulfonyl)phenyl)sulfonyl)benzamide]	500 to 1000 nM	
CC1(C)CCC(CN2CCN(c3ccc(C(=O)NS(=O)(=O)c4ccc(N[C@H](CCN5CCC(O)CC5)CSc5ccccc5)c(S(=O)(=O)C(F)(F)F)c4)cc3)CC2)=C(C23CC(C)(C2)C3)C1 [Example 68, (R)-4-(4-((4,4-dimethyl-2-(3-methylbicyclo[1.1.1]pentan-1-yl)cyclohex-1-en-1-yl)methyl)piperazin-1-yl)-N-((4-((4-(4-hydroxypiperidin-1-yl)-1-(phenylthio)butan-2-yl)amino)-3-((trifluoromethyl)sulfonyl)phenyl)sulfonyl)benzamide]	≤ 500 nM	100 to 1000 nM
CC1(C)CCC(CN2CCN(c3ccc(C(=O)NS(=O)(=O)c4ccc(N[C@H](CCN5CCC(O)C5)CSc5ccccc5)c(S(=O)(=O)C(F)(F)F)c4)cc3)CC2)=C(C23CC(C(F)F)(C2)C3)C1 (stereo partly drawn) [Example 71]	500 to 1000 nM	
O=C(NS(=O)(=O)c1ccc(NCC2CCOCC2)c([N+](=O)[O-])c1)c1ccc(N2CCN(CC3=C(C45CC(Cl)(C4)C5)CCCC3)CC2)cc1Oc1cnc2[nH]ccc2c1 [Example 72, 2-((1H-pyrrolo[2,3-b]pyridin-5-yl)oxy)-4-(4-((2-(3-chlorobicyclo[1.1.1]pentan-1-yl)cyclohex-1-en-1-yl)methyl)piperazin-1-yl)-N-((3-nitro-4-(((tetrahydro-2H-pyran-4-yl)methyl)amino)phenyl)sulfonyl)benzamide]		> 1000 nM
